Measured values from the kinase profiling compilation of Christmann-Franck et al. (2016).

Key:
Experiment in all cases: KINOMEscan competition binding
Details in all cases: compound 10.0 µM
PTK2 (human) = PTK2 (human) (UniProt Q05397)
MAPK4 (human) = MAPK4 (human) (UniProt P31152)
DAPK1 (human) = DAPK1 (human) (UniProt P53355)
BMPR2 (human) = BMPR2 (human) (UniProt Q13873)
CDKL5 (human) = CDKL5 (human) (UniProt O76039)
CDK4 CCND3 (human) = CDK4 CCND3 (human) (UniProt P11802+P30281)
PRKD2 (human) = PRKD2 (human) (UniProt Q9BZL6)
STK4 (human) = STK4 (human) (UniProt Q13043)
MYO3A (human) = MYO3A (human) (UniProt Q8NEV4)
MYLK3 (human) = MYLK3 (human) (UniProt Q32MK0)
DDR2 (human) = DDR2 (human) (UniProt Q16832)
MINK1 (human) = MINK1 (human) (UniProt Q8N4C8)
DYRK2 (human) = DYRK2 (human) (UniProt Q92630)
ULK3 (human) = ULK3 (human) (UniProt Q6PHR2)
AURKC (human) = AURKC (human) (UniProt Q9UQB9)
ANKK1 (human) = ANKK1 (human) (UniProt Q8NFD2)
MAPK3 (human) = MAPK3 (human) (UniProt P27361)
SLK (human) = SLK (human) (UniProt Q9H2G2)
GSK3B (human) = GSK3B (human) (UniProt P49841)
NEK4 (human) = NEK4 (human) (UniProt P51957)
SGK110 (human) = SGK110 (human) (UniProt P0C264)
KDR (human) = KDR (human) (UniProt P35968)
EPHA7 (human) = EPHA7 (human) (UniProt Q15375)
CSNK1G1 (human) = CSNK1G1 (human) (UniProt Q9HCP0)
BRSK2 (human) = BRSK2 (human) (UniProt Q8IWQ3)
MAP4K4 (human) = MAP4K4 (human) (UniProt O95819)
MUSK (human) = MUSK (human) (UniProt O15146)
RPS6KA6 KD1 (human) = RPS6KA6 KD1 (human) (UniProt Q9UK32)
STK10 (human) = STK10 (human) (UniProt O94804)
MAP3K5 (human) = MAP3K5 (human) (UniProt Q99683)
ULK1 (human) = ULK1 (human) (UniProt O75385)
CSNK2A2 (human) = CSNK2A2 (human) (UniProt P19784)
HUNK (human) = HUNK (human) (UniProt P57058)
STK32A (human) = STK32A (human) (UniProt Q8WU08)
STK38 (human) = STK38 (human) (UniProt Q15208)
EGFR (human) = EGFR (human) (UniProt P00533)
TTK (human) = TTK (human) (UniProt P33981)
TEK (human) = TEK (human) (UniProt Q02763)
HIPK1 (human) = HIPK1 (human) (UniProt Q86Z02)
[1] = biological target: JAK3 JH1 catalytic (human) (UniProt P52333)
Chain of JAK3 JH1 catalytic (human) (P52333 whole entry, looked up): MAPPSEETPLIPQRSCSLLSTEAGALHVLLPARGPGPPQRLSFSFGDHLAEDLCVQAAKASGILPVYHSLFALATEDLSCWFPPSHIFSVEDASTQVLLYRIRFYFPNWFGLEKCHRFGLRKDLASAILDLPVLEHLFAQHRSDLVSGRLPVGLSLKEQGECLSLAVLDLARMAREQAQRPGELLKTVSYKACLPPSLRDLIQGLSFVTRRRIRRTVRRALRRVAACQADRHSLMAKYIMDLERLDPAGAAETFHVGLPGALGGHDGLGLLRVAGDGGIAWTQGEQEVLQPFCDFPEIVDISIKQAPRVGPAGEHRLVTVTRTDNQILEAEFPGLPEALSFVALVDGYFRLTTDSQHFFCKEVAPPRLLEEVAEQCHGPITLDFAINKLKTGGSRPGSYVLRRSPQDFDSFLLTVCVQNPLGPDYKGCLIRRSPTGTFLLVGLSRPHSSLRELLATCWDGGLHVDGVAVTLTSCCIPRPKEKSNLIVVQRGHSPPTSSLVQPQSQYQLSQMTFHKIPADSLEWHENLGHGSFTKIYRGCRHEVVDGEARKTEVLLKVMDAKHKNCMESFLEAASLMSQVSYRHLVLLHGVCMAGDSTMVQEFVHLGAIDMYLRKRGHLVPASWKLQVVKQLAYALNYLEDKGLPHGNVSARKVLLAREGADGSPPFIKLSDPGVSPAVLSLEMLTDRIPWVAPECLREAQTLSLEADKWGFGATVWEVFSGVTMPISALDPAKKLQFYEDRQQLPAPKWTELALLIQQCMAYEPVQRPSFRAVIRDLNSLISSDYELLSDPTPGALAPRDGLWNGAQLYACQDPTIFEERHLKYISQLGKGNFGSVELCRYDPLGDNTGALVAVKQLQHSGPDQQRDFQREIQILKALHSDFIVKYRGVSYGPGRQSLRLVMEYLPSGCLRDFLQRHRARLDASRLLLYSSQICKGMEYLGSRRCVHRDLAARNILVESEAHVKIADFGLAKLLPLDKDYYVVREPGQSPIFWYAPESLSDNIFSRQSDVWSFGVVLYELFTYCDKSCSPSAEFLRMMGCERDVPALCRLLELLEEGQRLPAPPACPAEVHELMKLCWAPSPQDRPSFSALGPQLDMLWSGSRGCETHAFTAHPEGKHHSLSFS

Chain of STK32A (human) (Q8WU08 whole entry, looked up): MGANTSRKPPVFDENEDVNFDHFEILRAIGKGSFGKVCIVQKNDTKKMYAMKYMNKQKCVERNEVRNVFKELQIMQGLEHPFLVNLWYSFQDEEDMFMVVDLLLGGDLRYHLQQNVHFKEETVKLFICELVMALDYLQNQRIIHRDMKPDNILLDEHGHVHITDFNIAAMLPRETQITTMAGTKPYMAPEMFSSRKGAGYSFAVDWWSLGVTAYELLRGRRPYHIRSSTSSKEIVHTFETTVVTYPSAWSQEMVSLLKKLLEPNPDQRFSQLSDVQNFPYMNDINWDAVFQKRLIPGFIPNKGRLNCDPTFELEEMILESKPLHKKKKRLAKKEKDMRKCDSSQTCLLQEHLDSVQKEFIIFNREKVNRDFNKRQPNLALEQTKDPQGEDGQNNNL
Chain of TTK (human) (P33981 whole entry, looked up): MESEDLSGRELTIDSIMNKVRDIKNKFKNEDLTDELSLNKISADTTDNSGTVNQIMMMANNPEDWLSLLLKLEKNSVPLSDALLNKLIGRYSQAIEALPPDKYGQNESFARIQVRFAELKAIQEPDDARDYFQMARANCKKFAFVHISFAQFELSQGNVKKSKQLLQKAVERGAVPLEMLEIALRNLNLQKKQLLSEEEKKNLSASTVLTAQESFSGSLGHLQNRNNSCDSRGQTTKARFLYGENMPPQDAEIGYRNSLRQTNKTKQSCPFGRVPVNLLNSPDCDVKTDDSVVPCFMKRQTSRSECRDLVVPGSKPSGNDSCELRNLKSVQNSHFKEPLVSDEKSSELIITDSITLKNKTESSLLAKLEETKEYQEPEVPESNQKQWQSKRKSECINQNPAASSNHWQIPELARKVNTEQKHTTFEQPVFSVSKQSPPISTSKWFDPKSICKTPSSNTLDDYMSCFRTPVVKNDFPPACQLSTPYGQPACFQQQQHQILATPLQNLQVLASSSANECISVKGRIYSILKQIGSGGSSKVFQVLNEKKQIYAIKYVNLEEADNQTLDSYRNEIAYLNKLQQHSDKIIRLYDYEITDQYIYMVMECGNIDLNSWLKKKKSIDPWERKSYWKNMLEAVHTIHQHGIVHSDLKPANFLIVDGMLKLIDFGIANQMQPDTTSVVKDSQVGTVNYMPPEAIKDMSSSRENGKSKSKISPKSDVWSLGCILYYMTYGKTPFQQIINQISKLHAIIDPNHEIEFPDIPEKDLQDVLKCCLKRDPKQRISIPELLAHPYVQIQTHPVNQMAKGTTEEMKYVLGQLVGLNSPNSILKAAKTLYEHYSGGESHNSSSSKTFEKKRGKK
Chain of CSNK2A2 (human) (P19784 whole entry, looked up): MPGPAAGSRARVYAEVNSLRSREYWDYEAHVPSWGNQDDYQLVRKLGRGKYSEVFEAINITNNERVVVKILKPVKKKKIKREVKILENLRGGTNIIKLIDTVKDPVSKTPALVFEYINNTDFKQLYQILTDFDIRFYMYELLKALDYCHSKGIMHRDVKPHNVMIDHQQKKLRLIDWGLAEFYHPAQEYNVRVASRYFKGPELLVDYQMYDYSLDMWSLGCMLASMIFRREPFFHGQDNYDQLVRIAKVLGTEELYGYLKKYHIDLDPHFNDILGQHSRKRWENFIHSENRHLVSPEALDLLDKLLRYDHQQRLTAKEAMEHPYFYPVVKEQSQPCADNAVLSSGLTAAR
Chain of MAPK3 (human) (P27361 whole entry, looked up): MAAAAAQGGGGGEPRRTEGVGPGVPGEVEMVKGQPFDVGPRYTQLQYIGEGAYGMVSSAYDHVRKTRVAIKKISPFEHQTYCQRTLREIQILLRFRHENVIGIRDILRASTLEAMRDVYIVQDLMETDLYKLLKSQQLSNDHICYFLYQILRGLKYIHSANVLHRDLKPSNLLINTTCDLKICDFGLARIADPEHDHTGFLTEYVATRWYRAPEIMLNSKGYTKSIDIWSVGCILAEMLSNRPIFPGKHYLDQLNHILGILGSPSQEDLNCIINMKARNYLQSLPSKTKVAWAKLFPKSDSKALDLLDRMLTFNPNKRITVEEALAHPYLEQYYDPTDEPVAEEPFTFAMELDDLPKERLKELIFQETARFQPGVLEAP
Chain of ULK3 (human) (Q6PHR2 whole entry, looked up): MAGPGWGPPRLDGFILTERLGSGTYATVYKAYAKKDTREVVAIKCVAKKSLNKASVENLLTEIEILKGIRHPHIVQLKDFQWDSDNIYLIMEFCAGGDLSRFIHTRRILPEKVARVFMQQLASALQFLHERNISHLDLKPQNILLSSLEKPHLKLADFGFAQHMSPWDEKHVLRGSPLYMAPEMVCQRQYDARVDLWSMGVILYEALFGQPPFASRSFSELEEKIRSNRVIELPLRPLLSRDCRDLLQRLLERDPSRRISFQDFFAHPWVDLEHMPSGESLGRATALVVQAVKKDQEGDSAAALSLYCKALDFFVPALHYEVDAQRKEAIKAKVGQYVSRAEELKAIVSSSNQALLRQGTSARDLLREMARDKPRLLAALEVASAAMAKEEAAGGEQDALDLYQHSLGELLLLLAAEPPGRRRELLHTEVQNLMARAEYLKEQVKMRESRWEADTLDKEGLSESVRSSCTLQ
Chain of CDKL5 (human) (O76039 whole entry, looked up): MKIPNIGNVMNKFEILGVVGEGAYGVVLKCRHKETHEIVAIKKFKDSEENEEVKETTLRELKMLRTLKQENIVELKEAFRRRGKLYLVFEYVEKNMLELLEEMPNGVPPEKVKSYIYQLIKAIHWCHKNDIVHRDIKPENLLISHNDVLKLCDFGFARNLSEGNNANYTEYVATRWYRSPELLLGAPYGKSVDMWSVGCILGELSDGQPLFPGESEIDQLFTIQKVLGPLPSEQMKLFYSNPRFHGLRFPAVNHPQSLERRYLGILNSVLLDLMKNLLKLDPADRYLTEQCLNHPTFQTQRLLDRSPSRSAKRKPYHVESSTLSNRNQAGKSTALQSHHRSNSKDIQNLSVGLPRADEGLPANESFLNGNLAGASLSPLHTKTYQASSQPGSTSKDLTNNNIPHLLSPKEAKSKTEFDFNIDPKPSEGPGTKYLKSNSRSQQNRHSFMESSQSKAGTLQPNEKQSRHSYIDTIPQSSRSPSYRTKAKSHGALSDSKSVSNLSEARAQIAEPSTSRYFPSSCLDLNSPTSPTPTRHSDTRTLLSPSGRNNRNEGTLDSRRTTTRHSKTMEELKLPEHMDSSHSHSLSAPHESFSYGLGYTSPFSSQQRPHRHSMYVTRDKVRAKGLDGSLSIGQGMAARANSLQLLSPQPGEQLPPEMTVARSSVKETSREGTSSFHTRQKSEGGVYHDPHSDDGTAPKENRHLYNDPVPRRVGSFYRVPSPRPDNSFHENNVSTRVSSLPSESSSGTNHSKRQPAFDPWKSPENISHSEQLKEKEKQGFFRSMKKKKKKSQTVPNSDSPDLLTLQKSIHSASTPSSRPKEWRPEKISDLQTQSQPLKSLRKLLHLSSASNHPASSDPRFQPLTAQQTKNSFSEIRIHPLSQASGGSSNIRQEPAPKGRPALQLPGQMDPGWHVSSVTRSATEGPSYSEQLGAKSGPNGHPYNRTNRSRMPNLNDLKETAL
Chain of SGK110 (human) (P0C264 whole entry, looked up): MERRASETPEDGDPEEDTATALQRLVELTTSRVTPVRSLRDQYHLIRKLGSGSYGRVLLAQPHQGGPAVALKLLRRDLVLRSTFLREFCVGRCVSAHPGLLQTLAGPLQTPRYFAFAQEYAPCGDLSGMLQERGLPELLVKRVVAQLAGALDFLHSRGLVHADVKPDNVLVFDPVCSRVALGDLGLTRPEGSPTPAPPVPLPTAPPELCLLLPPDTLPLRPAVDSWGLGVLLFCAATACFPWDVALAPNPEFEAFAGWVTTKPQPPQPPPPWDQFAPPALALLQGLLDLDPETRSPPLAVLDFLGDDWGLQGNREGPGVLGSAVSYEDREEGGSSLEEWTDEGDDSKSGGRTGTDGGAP

C=CC(=O)Nc1cc(-n2c(=O)ccc3cnc4ccc(-c5cn[nH]c5)cc4c32)ccc1C
kinase still bound, per cent of control (PTK2 (human)): 96%
kinase still bound, per cent of control (MAPK4 (human)): 100%
kinase still bound, per cent of control (DAPK1 (human)): 70%
kinase still bound, per cent of control (BMPR2 (human)): 4.6%
kinase still bound, per cent of control (CDKL5 (human)): 3.3%
kinase still bound, per cent of control (CDK4 CCND3 (human)): 87%
kinase still bound, per cent of control (PRKD2 (human)): 89%
kinase still bound, per cent of control (STK4 (human)): 83%
kinase still bound, per cent of control (MYO3A (human)): 94%
kinase still bound, per cent of control (MYLK3 (human)): 100%
kinase still bound, per cent of control (DDR2 (human)): 75%
kinase still bound, per cent of control (MINK1 (human)): 31%
kinase still bound, per cent of control (DYRK2 (human)): 0.6%
kinase still bound, per cent of control (ULK3 (human)): 97%
kinase still bound, per cent of control (AURKC (human)): 100%
kinase still bound, per cent of control (ANKK1 (human)): 82%
kinase still bound, per cent of control (MAPK3 (human)): 100%
kinase still bound, per cent of control (SLK (human)): 100%
kinase still bound, per cent of control (GSK3B (human)): 84%
kinase still bound, per cent of control (NEK4 (human)): 83%
kinase still bound, per cent of control (SGK110 (human)): 100%
kinase still bound, per cent of control (KDR (human)): 50%
kinase still bound, per cent of control (EPHA7 (human)): 99%
kinase still bound, per cent of control (CSNK1G1 (human)): 86%
kinase still bound, per cent of control (BRSK2 (human)): 67%
kinase still bound, per cent of control (MAP4K4 (human)): 60%
kinase still bound, per cent of control (MUSK (human)): 93%
kinase still bound, per cent of control (RPS6KA6 KD1 (human)): 74%
kinase still bound, per cent of control (STK10 (human)): 94%
kinase still bound, per cent of control (MAP3K5 (human)): 100%
kinase still bound, per cent of control (ULK1 (human)): 87%
kinase still bound, per cent of control (CSNK2A2 (human)): 1.2%
kinase still bound, per cent of control (HUNK (human)): 86%
kinase still bound, per cent of control (STK32A (human)): 100%
kinase still bound, per cent of control (STK38 (human)): 87%
kinase still bound, per cent of control (EGFR (human)): 30%
kinase still bound, per cent of control (TTK (human)): 21%
kinase still bound, per cent of control (TEK (human)): 100%
kinase still bound, per cent of control (HIPK1 (human)): 52%
kinase still bound, per cent of control [1]: 0%

CCN1CCN(C(=O)Cc2ccc(Nc3ncc(F)c(Nc4ccc(C(=O)Nc5ccccc5Cl)cc4)n3)cc2)CC1
kinase still bound, per cent of control (PTK2 (human)): 28%
kinase still bound, per cent of control (MAPK4 (human)): 82%
kinase still bound, per cent of control (DAPK1 (human)): 3.8%
kinase still bound, per cent of control (BMPR2 (human)): 25%
kinase still bound, per cent of control (CDKL5 (human)): 100%
kinase still bound, per cent of control (CDK4 CCND3 (human)): 21%
kinase still bound, per cent of control (PRKD2 (human)): 100%
kinase still bound, per cent of control (STK4 (human)): 98%
kinase still bound, per cent of control (MYO3A (human)): 100%
kinase still bound, per cent of control (MYLK3 (human)): 100%
kinase still bound, per cent of control (DDR2 (human)): 100%
kinase still bound, per cent of control (MINK1 (human)): 57%
kinase still bound, per cent of control (DYRK2 (human)): 18%
kinase still bound, per cent of control (ULK3 (human)): 1.5%
kinase still bound, per cent of control (AURKC (human)): 1.2%
kinase still bound, per cent of control (ANKK1 (human)): 36%
kinase still bound, per cent of control (MAPK3 (human)): 100%
kinase still bound, per cent of control (SLK (human)): 0.2%
kinase still bound, per cent of control (GSK3B (human)): 61%
kinase still bound, per cent of control (NEK4 (human)): 63%
kinase still bound, per cent of control (SGK110 (human)): 40%
kinase still bound, per cent of control (KDR (human)): 16%
kinase still bound, per cent of control (EPHA7 (human)): 55%
kinase still bound, per cent of control (CSNK1G1 (human)): 100%
kinase still bound, per cent of control (BRSK2 (human)): 82%
kinase still bound, per cent of control (MAP4K4 (human)): 69%
kinase still bound, per cent of control (MUSK (human)): 11%
kinase still bound, per cent of control (RPS6KA6 KD1 (human)): 37%
kinase still bound, per cent of control (STK10 (human)): 3.4%
kinase still bound, per cent of control (MAP3K5 (human)): 100%
kinase still bound, per cent of control (ULK1 (human)): 28%
kinase still bound, per cent of control (CSNK2A2 (human)): 7.8%
kinase still bound, per cent of control (HUNK (human)): 49%
kinase still bound, per cent of control (STK32A (human)): 100%
kinase still bound, per cent of control (STK38 (human)): 70%
kinase still bound, per cent of control (EGFR (human)): 26%
kinase still bound, per cent of control (TTK (human)): 18%
kinase still bound, per cent of control (TEK (human)): 48%
kinase still bound, per cent of control (HIPK1 (human)): 3.2%
kinase still bound, per cent of control [1]: 3.7%
